Assay results published in PubChem BioAssay AID330 (DTP/NCI, 2004).
“And” between values parts separate entries of the source, which are not always exact repeats. Identical values can stand only once. Inconclusive results and toxic doses are left out.

Test system: P388 leukemia ip, CD2F1 mice, survival T/C
Experiment: NCI In Vivo Anticancer Drug Screen. Data for tumor model P388 Leukemia (intraperitoneal) in CD2F1 (CDF1) mice
Settings: endpoint: median survival time, higher = longer survival
Outline: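 Mice carrying the transplanted tumor received test compound or vehicle. Survival was recorded in each group, and the value is the treated-group measurement divided by that of the vehicle-treated control group.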

[1] = dose: 50.0 mg/kg/injection, schedule: Q01DX009 (ip), vehicle: Klucel (hydroxypropylcellulose) (HPC)
[2] = dose: 100.0 mg/kg/injection, schedule: Q01DX009 (ip), vehicle: Klucel (hydroxypropylcellulose) (HPC)
[3] = dose: 200.0 mg/kg/injection, schedule: Q01DX009 (ip), vehicle: Klucel (hydroxypropylcellulose) (HPC)
[4] = dose: 50.0 mg/kg/injection, schedule: Q01DX005 (ip), vehicle: saline with Tween-80
[5] = dose: 100.0 mg/kg/injection, schedule: Q01DX005 (ip), vehicle: saline with Tween-80
[6] = dose: 200.0 mg/kg/injection, schedule: Q01DX005 (ip), vehicle: saline with Tween-80
[7] = dose: 60.0 mg/kg/injection, schedule: Q01DX005 (ip), vehicle: saline
[8] = dose: 120.0 mg/kg/injection, schedule: Q01DX005 (ip), vehicle: saline
[9] = dose: 240.0 mg/kg/injection, schedule: Q01DX005 (ip), vehicle: saline
[10] = dose: 60.0 mg/kg/injection, schedule: Q01DX005 (ip), vehicle: Klucel (hydroxypropylcellulose) (HPC)
[11] = dose: 120.0 mg/kg/injection, schedule: Q01DX005 (ip), vehicle: Klucel (hydroxypropylcellulose) (HPC)
[12] = dose: 240.0 mg/kg/injection, schedule: Q01DX005 (ip), vehicle: Klucel (hydroxypropylcellulose) (HPC)

CC(=O)OCC1OC2OC(C)(OC(C)C)OC2C(OC(C)=O)C1OC(C)=O (centres undefined)
T/C (dose: 4.0 mg/kg/injection, schedule: Q01DX009 (ip), vehicle: water): 106 % of control
T/C (dose: 8.0 mg/kg/injection, schedule: Q01DX009 (ip), vehicle: water): 102 % of control
T/C (dose: 16.0 mg/kg/injection, schedule: Q01DX009 (ip), vehicle: water): 100 % of control
T/C (dose: 32.0 mg/kg/injection, schedule: Q01DX009 (ip), vehicle: water): 99 % of control
T/C (dose: 50.0 mg/kg/injection, schedule: Q01DX009 (ip), vehicle: other): 108 % of control
T/C (dose: 64.0 mg/kg/injection, schedule: Q01DX009 (ip), vehicle: water): 98 % of control
T/C (dose: 100.0 mg/kg/injection, schedule: Q01DX009 (ip), vehicle: other): 108 % of control
T/C (dose: 200.0 mg/kg/injection, schedule: Q01DX009 (ip), vehicle: other): 102 % of control
T/C (dose: 400.0 mg/kg/injection, schedule: Q01DX009 (ip), vehicle: other): 102 % of control

CCCCCCCCCCCC(=O)OC/C=C/COC(=O)c1ccccc1
T/C [1]: 100 % of control
T/C [2]: 108 % of control
T/C [3]: 96 % of control

CCO/C=N/NC(=O)c1n[nH]c2ccccc12
T/C [4]: 106 % of control
T/C [5]: 100 % of control
T/C [6]: 106 % of control

CC/C(C)=C1\OC(=O)C(C)C(O)C(Cc2cccnc2)NC(=O)C(NC(=O)c2ncccc2O)C(C)OC1=O (centres undefined)
T/C (dose: 18.75 mg/kg/injection, schedule: Q01DX009 (ip), vehicle: saline with Tween-80): 88 % of control
T/C (dose: 37.5 mg/kg/injection, schedule: Q01DX009 (ip), vehicle: saline with Tween-80): 86 % of control
T/C (dose: 150.0 mg/kg/injection, schedule: Q01DX009 (ip), vehicle: saline with Tween-80): 86 % of control

NC(=O)c1ccc[n+](CCC[n+]2cccc(C(N)=O)c2)c1
T/C [7]: 103 % of control
T/C [8]: 101 % of control
T/C [9]: 99 % of control

CCN(CC)CCOc1cccc2c1C(=O)c1ccccc1C2=O
T/C (dose: 50.0 mg/kg/injection, schedule: Q01DX009 (ip), vehicle: saline): 105 % of control and 98 % of control
T/C (dose: 100.0 mg/kg/injection, schedule: Q01DX009 (ip), vehicle: saline): 106 % of control

Cc1ccc(-n2nc(C(O)C(O)C(O)CO)c3nc4cc(C)c(C)cc4nc32)cc1 (centres undefined)
T/C (dose: 25.0 mg/kg/injection, schedule: Q01DX005 (ip), vehicle: saline with Tween-80): 98 % of control
T/C [4]: 100 % of control and 90 % of control
T/C [5]: 102 % of control
T/C [6]: 100 % of control

COc1ccc(C(N)Cc2ccccc2)cc1 (centres undefined)
T/C (dose: 50.0 mg/kg/injection, schedule: Q01DX005 (ip), vehicle: Klucel (hydroxypropylcellulose) (HPC)): 92 % of control
T/C (dose: 100.0 mg/kg/injection, schedule: Q01DX005 (ip), vehicle: Klucel (hydroxypropylcellulose) (HPC)): 100 % of control
T/C (dose: 200.0 mg/kg/injection, schedule: Q01DX005 (ip), vehicle: Klucel (hydroxypropylcellulose) (HPC)): 102 % of control

C/C=C(\C)C(=O)OC1C2C(C)=CC(=O)C(O)C2(C)C2C3(O)OCC24C1OC(=O)C(O)C4C(C)C3O (centres undefined)
T/C (dose: 2.5 mg/kg/injection, schedule: Q01DX005 (ip), vehicle: saline): 154 % of control
T/C (dose: 7.5 mg/kg/injection, schedule: Q01DX005 (ip), vehicle: Klucel (hydroxypropylcellulose) (HPC)): 175 % of control
T/C (dose: 10.0 mg/kg/injection, schedule: Q01DX005 (ip), vehicle: saline): 154 % of control
T/C (dose: 15.0 mg/kg/injection, schedule: Q01DX005 (ip), vehicle: Klucel (hydroxypropylcellulose) (HPC)): 180 % of control
T/C (dose: 15.0 mg/kg/injection, schedule: Q01DX005 (ip), vehicle: saline): 154 % of control
T/C (dose: 30.0 mg/kg/injection, schedule: Q01DX005 (ip), vehicle: Klucel (hydroxypropylcellulose) (HPC)): 189 % of control

CCOC(=O)C(Nc1cc([N+](=O)[O-])ccc1C(=O)N1CCCCC1)(C(=O)OCC)N1CCCCC1
T/C [10]: 96 % of control
T/C [11]: 92 % of control
T/C [12]: 89 % of control

CC(C)(CO)NCC(O)CS(=O)(=O)O (centres undefined)
T/C [7]: 100 % of control
T/C [8]: 100 % of control
T/C [9]: 101 % of control

CN(C)C(=Nc1ccc(NC(=O)c2ccc(C(=O)Nc3ccc(N=C(Nc4ccccc4)N(C)C)cc3)cc2)cc1)Nc1ccccc1
T/C (dose: 6.25 mg/kg/injection, schedule: Q01DX005 (ip), vehicle: Klucel (hydroxypropylcellulose) (HPC)): 101 % of control
T/C (dose: 12.5 mg/kg/injection, schedule: Q01DX005 (ip), vehicle: Klucel (hydroxypropylcellulose) (HPC)): 101 % of control
T/C (dose: 25.0 mg/kg/injection, schedule: Q01DX005 (ip), vehicle: Klucel (hydroxypropylcellulose) (HPC)): 100 % of control

COC1=CC(=O)C=C(OC)C1=O
T/C (dose: 0.5 mg/kg/injection, schedule: Q01DX009 (ip), vehicle: saline with Tween-80): 109 % of control
T/C (dose: 1.0 mg/kg/injection, schedule: Q01DX009 (ip), vehicle: saline with Tween-80): 113 % of control
T/C (dose: 2.0 mg/kg/injection, schedule: Q01DX009 (ip), vehicle: saline with Tween-80): 119 % of control
T/C (dose: 4.0 mg/kg/injection, schedule: Q01DX009 (ip), vehicle: saline with Tween-80): 111 % of control

O=C1c2cccc(NCCCNCCO)c2C(=O)c2cccc(NCCCNCCO)c21
T/C (dose: 12.5 mg/kg/injection, schedule: Q04DX002 (ip), vehicle: distilled water + Tween-80): 110 % of control
T/C (dose: 25.0 mg/kg/injection, schedule: Q04DX002 (ip), vehicle: distilled water + Tween-80): 104 % of control
T/C (dose: 50.0 mg/kg/injection, schedule: Q04DX002 (ip), vehicle: distilled water + Tween-80): 111 % of control

CCCCCCCCCCCCCCCCCC[N+](C)(C)C
T/C (dose: 3.12 mg/kg/injection, schedule: Q01DX009 (ip), vehicle: saline): 118 % of control

Fc1ccc(NC(=S)S)cc1
T/C (dose: 6.25 mg/kg/injection, schedule: Q01DX009 (ip), vehicle: saline with Tween-80): 104 % of control
T/C (dose: 6.25 mg/kg/injection, schedule: Q04DX003 (ip), vehicle: saline): 100 % of control
T/C (dose: 12.5 mg/kg/injection, schedule: Q01DX009 (ip), vehicle: saline with Tween-80): 104 % of control
T/C (dose: 12.5 mg/kg/injection, schedule: Q04DX003 (ip), vehicle: saline): 115 % of control
T/C (dose: 25.0 mg/kg/injection, schedule: Q01DX009 (ip), vehicle: saline with Tween-80): 104 % of control
T/C (dose: 25.0 mg/kg/injection, schedule: Q04DX003 (ip), vehicle: saline): 100 % of control

OC[CH2][Hg][Br]
T/C (dose: 0.37 mg/kg/injection, schedule: Q01DX009 (ip), vehicle: saline): 101 % of control
T/C (dose: 0.75 mg/kg/injection, schedule: Q01DX009 (ip), vehicle: saline): 101 % of control
T/C (dose: 1.5 mg/kg/injection, schedule: Q01DX009 (ip), vehicle: saline): 101 % of control
T/C (dose: 3.0 mg/kg/injection, schedule: Q01DX009 (ip), vehicle: saline): 118 % of control
T/C (dose: 6.0 mg/kg/injection, schedule: Q01DX009 (ip), vehicle: saline): 104 % of control

COc1cc(N=Nc2c(Cl)cc([N+](=O)[O-])cc2Cl)c(OC)cc1N=Nc1ccc(N)nc1N
T/C [4]: 99 % of control
T/C [5]: 100 % of control
T/C [6]: 101 % of control

Brc1ccc2c(ccc3nc4nnnn4nc32)c1
T/C [10]: 94 % of control
T/C [11]: 90 % of control
T/C [12]: 86 % of control

Nc1ccccc1N1C(c2ccccc2)=CC(=O)N2CCN=C21
T/C [1]: 90 % of control
T/C [2]: 101 % of control
T/C [3]: 95 % of control

CCCCCc1ccccc1
T/C (dose: 100.0 mg/kg/injection, schedule: Q01DX009 (ip), vehicle: saline with Tween-80): 106 % of control
T/C (dose: 200.0 mg/kg/injection, schedule: Q01DX009 (ip), vehicle: saline with Tween-80): 109 % of control

Cc1cccc(NC(=O)Nc2ccccc2Cl)n1
T/C [1]: 102 % of control
T/C [2]: 96 % of control
T/C [3]: 93 % of control

N#Cc1c(-c2ccccc2)nc2n1CCS2
T/C (dose: 100.0 mg/kg/injection, schedule: Q01DX001 (ip), vehicle: Klucel (hydroxypropylcellulose) (HPC)): 102 % of control
T/C (dose: 200.0 mg/kg/injection, schedule: Q01DX001 (ip), vehicle: Klucel (hydroxypropylcellulose) (HPC)): 100 % of control
T/C (dose: 400.0 mg/kg/injection, schedule: Q01DX001 (ip), vehicle: Klucel (hydroxypropylcellulose) (HPC)): 100 % of control

COC(=O)CC1CSCC1=O (centres undefined)
T/C (dose: 60.0 mg/kg/injection, schedule: Q01DX005 (ip), vehicle: saline with Tween-80): 105 % of control
T/C (dose: 120.0 mg/kg/injection, schedule: Q01DX005 (ip), vehicle: saline with Tween-80): 100 % of control
T/C (dose: 240.0 mg/kg/injection, schedule: Q01DX005 (ip), vehicle: saline with Tween-80): 105 % of control
